{"source": "patent US20030124160A1", "about": "“Targeted drug delivery” (priority 2001, published 2003)", "key": {"[1]": {"system": "B16-F1 mouse melanoma cells", "experiment": "Pigmentation of melanoma cells, visual inspection", "format": "cell-based", "details": "0.5 mM free NB-DNJ, 72 h", "experimental": "Cells were treated with for 72 h in the presence and absence of NB-DNJ free or included in liposomes, transferred into a microtiter plate and pelleted by centrifugation.\nTyrosinase is the regulatory enzyme of melanogenesis in melanocytes. Therefore, inactivation of tyrosinase is associated with lack of pigmentation due to the absence of melanin synthesis in specialized cells. To correlate the results on tyrosinase activity, with the melanin content, the pigmentation of the melanoma cells treated With liposomes was observed. […] The lack of pigmentation in melanoma cells treated with minute amounts of liposomal NB-DNJ correlates well with the abolishment of tyrosinase activity as a result of N-glycosylation processing inhibition, reinforcing the efficiency of the cytoplasmic delivery of the drug encapsulated in liposomes."}, "tyrosinase [2]": {"system": "tyrosinase", "details": "B16 mouse melanoma cells, 0.5 mM-5 mM free NB-DNJ (ref. [6]); cited from earlier work"}, "tyrosinase [3]": {"system": "tyrosinase", "experiment": "Tyrosinase activity (DOPA oxidase assay) in lysates of B16-F1 cells cultured with free or liposome-included inhibitor", "format": "cell-based, mouse", "details": "24 h after washout following 72 h incubation", "experimental": "B16-F1 mouse melanoma cells (European Collection of Animal Cell Culture, Porton Down, U.K.) were cultured in RPMI 1640 medium (Life Technologies, Paisley, Scotland, and U.K.) as described in ref. [8]. Cells were incubated with liposomes for 72 h at 37° C. and their viability was determined by using the trypan blue staining test. Following the incubation time, cells were harvested, washed three times with PBS and lysed in 10 mM phosphate buffer, pH 6.8 containing 1% Nonidet P40 and proteinase inhibitors.\nTyrosinase activity was measured by the DOPA oxidase assay that measures the conversion of DOPA to DOPAchrome via DOPA quinone. Briefly, 50 μl of cell lysate was mixed with 950 μl of 1 mM DOPA in 0.1 M sodium phosphate buffer, pH 7.2 at 37° C. and the reaction was followed spectrophotometrically at 475 nm by the chromogenic appearance of DOPAchroine from 1 mM DOPA (ref. [8]).\nTo investigate the uptake of liposome encapsulated NB-DNJ in living cells,.the activity of tyrosinase was monitored, a constitutively expressed enzyme of melanoma cells, highly sensitive to small variations of the NB-DNJ concentration in the culture medium (ref. [8]). Inhibition of N-glycosylation processing in the presence of NB-DNJ yields a tyrosinase polypeptide caring Glc3Man7-9GlcNAc glycans. […]"}}}
{"smiles": "CCCCN1C[C@H](O)[C@@H](O)[C@H](O)[C@H]1CO", "note": "[NB-DNJ, N-butyldeoxynojirimycin]", "values": [{"measurement": "pigmentation", "setting": "[1]", "result": "dramatic decrease"}, {"measurement": "tyrosinase activity", "setting": "tyrosinase [2]", "result": "dramatic decrease"}, {"measurement": "recovery of tyrosinase activity", "setting": "tyrosinase [3]", "result": 75, "unit": "%"}]}
